The target in one assay is dopamine receptors (Rattus norvegicus, UniProt P61169). Briefly: Inhibition of 3H-Spiroperidol Binding to Dopamine Receptors (rat corpus striatum). The arrangement: species or system rats (Sprague-Dawley CD males). As to conditions: 0.5 nM 3H-spiroperidol, 10 minutes at 37° C.
The subject of a further assay is Amphetamine Stereotypy. Briefly: Antagonism of Amphetamine Stereotypy in Rats (ED50 for blocking characteristic amphetamine cage movement). The assay is classed as in vivo. As to conditions: s.c.; for ED50: Rattus norvegicus, sc; for ED50, 24 Hrs.: 1440 min; for ED50, 48 Hrs.: 2880 min; for ED50, 72 Hrs.: 4320 min; for ED50, 1 Hr.: 60 min. On the procedure: The effects of the compounds of the present invention on prominent amphetamine-induced symptoms were studied in rats by a rating scale modeled after the one reported by Quinton and Halliwell, and Weissman. Groups of five rats were placed in a covered plastic cage measuring approximately 26 cm.×42 cm.×16 cm. […] They were then treated 1, 5 and 24 hrs. later with d-amphetamine sulfate, 5 mg./kg. intraperitoneally (i.p.). […] On the basis of dose-response data after amphetamine it was possible to determine the effective dose of the compound necessary to antagonize or block the characteristic amphetamine behavior of cage movement for fifty percent of the rats tested (ED50). The time of rating chosen coincides with the peak action of amphetamine which is 60-80 min. after treatment with this agent.
Employing the above-described procedure, the following 4a,9b-trans compounds were tested for their ability to block the behavior effects of amphetamine, the results being reported as the ED50 in mg./kg. at the indicated times: [drawing 30]
A. The following results were obtained on the mixture of diastereomers for those compounds wherein R contains a secondary alcohol group and on the single diastereomer of the other 4a, 9b-trans hexahydro-pyrido-indoles.
B. The results of tests in which compounds of the invention reported in Part A, above are compared with the corresponding δ-substituted-5-aryl-1,2,3,4-tetrahydropyrido[4,3-b]indoles of U.S. Pat. No. 4,001,263 are summarized below. For each pair the results obtained on the prior art compound (a) are given first and the results for the compound of the invention (b) are given second. Where indicated the test compound was also administered orally (p.o.) and tests were carried out for 48 hours.
C. […] In each case the compounds are of the formula
The tests were carried out for 72 hours.

Where [1] appears, read: Part C, isomers of Examples 13 and 14, hydrochloride.
Where [2] appears, read: Part D, enantiomers by synthesis of Example 21, hydrochloride.

Data on 3 compounds can be found in patent US4224329A, “2-Substitute d-trans-5-aryl-2,3,4,4a,5,9b-hexahydro-1H-pyrido[4,3-b]indoles” (Pfizer Inc., priority 1979, dated 1980).

The structures appear in SMILES notation. Structures can show the parent of a compound that is named as a salt. Where two headings read alike, the source gives them in different places.

dopamine receptors, sequence (P61169 whole entry): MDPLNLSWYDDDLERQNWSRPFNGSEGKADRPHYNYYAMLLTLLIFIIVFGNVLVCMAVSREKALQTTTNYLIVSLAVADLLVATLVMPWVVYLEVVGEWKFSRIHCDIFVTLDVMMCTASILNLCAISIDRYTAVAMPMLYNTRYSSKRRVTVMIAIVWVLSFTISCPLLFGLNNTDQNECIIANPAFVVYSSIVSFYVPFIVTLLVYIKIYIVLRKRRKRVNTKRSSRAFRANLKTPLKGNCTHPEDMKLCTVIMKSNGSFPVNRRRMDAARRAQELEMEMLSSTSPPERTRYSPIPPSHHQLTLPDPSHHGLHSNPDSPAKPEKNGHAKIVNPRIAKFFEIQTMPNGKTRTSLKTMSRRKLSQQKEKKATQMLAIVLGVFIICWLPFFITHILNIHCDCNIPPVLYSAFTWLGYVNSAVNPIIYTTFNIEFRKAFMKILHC

The IC50 is the midpoint of a concentration-inhibition curve. A word on the ED50: it is the midpoint of the dose-response relation. Turning to `OC(CCCN1CC[C@H]2[C@H](C1)c1cc(F)ccc1N2c1ccc(F)cc1)c1ccc(F)cc1` (relative stereo) [αβγδ, dl-trans-8-Fluoro-5-(p-fluorophenyl)-2-[4-hydroxy-4-(p-fluorophenyl)butyl]-2,3,4,4a,5,9b-hexahydro-1H-pyrido[4,3-b]indole hydrochloride], the IC50 on dopamine receptors was determined as 21 nM. Further, the ED50 lay within 0.032 to 0.1 mg/kg with Amphetamine Stereotypy (1 h, Part C, isomers of Examples 13 and 14, read-out: ED50, 1 Hr.); 0.032 to 0.1 mg/kg in the assay with Amphetamine Stereotypy (5 h, Part C, isomers of Examples 13 and 14, read-out: ED50, 5 Hrs.); 0.032 to 0.1 mg/kg with Amphetamine Stereotypy (24 h, Part C, isomers of Examples 13 and 14, read-out: ED50, 24 Hrs.).
At dopamine receptors, `OC(CCCN1CC[C@@H]2[C@@H](C1)c1cc(F)ccc1N2c1ccc(F)cc1)c1ccc(F)cc1` (single isomer, unassigned) [γ, trans 8-fluoro-5-(p-fluorophenyl)-2-[4-hydroxy-4(p-fluorophenyl)butyl]-2,3,4,4a,5,9b-hexahydro-1H-pyrido[4,3-b]indole hydrochloride] displayed an IC50 of 25 nM. In addition, the “ED50, 24 Hrs.” value in the assay with Amphetamine Stereotypy (setting [1]) is given as 32-100 micrograms/kilograms. For the same compound, in the assay on Amphetamine Stereotypy (setting [2]), the “ED50, 48 Hrs.” value was “ca. 1 mg./kg” and the “ED50, 72 Hrs.” value is more than 1 mg/kg.
Turning to `OC(CCCN1CC[C@@H]2[C@@H](C1)c1cc(F)ccc1N2c1ccc(F)cc1)c1ccc(F)cc1` (single isomer, unassigned) [δ, trans 8-fluoro-5-(p-fluorophenyl)-2-[4-hydroxy-4(p-fluorophenyl)butyl]-2,3,4,4a,5,9b-hexahydro-1H-pyrido[4,3-b]indole hydrochloride], the concentration for half-maximal inhibition (IC50) on dopamine receptors amounted to 350 nM. Moreover, in the assay on Amphetamine Stereotypy (setting [1]), the “ED50, 1 Hr.” value was more than 1000 micrograms/kilograms and the “ED50, 24 Hrs.” value was 320-1000 micrograms/kilograms. In the assay with Amphetamine Stereotypy (setting [2]), the “ED50, 1 Hr.” value was more than 10 mg/kg; the “ED50, 24 Hrs.” value was more than 10 mg/kg; the “ED50, 48 Hrs.” value was more than 10 mg/kg; the “ED50, 72 Hrs.” value is more than 10 mg/kg. Also, in the assay on Amphetamine Stereotypy (5 hrs, Part D, enantiomers by synthesis of Example 21, hydrochloride, 300 min), the “ED50, 5 Hrs.” value stood at 5.7 mg/kg.
